Laboratory results as given in publication PMC3791872 (Bioscience Reports, 2013).

What was measured:
[1] = test system: S. cerevisiae ∆erg6 mcm4chaos3 (UPY1056); assay: Yeast growth inhibition, 96-well assay, ∆erg6 mcm4chaos3 strain; assay type: cell-based; conditions: Saccharomyces cerevisiae; growth over 24 h
Wild-type yeast = assay: Yeast growth inhibition, wild-type strain; assay type: cell-based, Saccharomyces cerevisiae; conditions: Figure 4A
Method: S. cerevisiae growth inhibition was quantified using an established 96-well assay. Two isogenic W303 tester strains were used (construction details available upon request): UPY675 (matA, ade2-1, ura3-1, his3-11,15, trp1-1, leu2-3,112, can1-100, bar1::hisG, Δerg6::kanMX) and UPY1056 (isogenic to UPY675 but containing mcm4chaos3). Overnight yeast cultures were grown in YPD medium (1% (w/v) yeast extract/2% (w/v) peptone/2% (w/v) glucose), diluted to 0.05 A600, grown to an A600 of 0.1–0.15, divided into aliquots into a 96-well plate, and then treated with inhibitor titrations. Inhibitors were first diluted in pure DMSO, and then added to wells to a final volume of 100 μl containing 2% (v/v) DMSO. Plates were grown without shaking at 30°C for 24 h. Optical density was quantified at 0 and 24 h with a Bio-tek EL800 Universal Microplate reader. Percent relative growth was determined by calculating the change in optical density over 24 h at each concentration relative to a 2% DMSO control.

RPE-hTERT cells = assay: Human cell viability, MTS method; assay type: cell-based; conditions: Homo sapiens, 48 h, value (95% CI)
Method: Ciproﬂoxacin is an inhibitor of the Mcm2-7 […]
The viability of human cells was assayed using the MTS method
[1]. Brieﬂy, 1 ×10^5 cells of the human non-tumour cell line RPE-hTERT were plated into each well of a 96-well plate and grown in DMEM: F12 containing 10 % (v/v) FBS in 5 % (v/v) CO2 at 37 ◦ C. The next day, the indicated compounds were titrated into media such that the ﬁnal concentration contained 1 % (v/v)
DMSO. As a negative control, media were also prepared that contained 1 % DMSO but lacked compound. After 48 h, the media was removed and replaced with DMEM lacking phenol red but containing Cell Titer 96 Aqueous One Solution Cell Proliferation
Assay (Promega). After 1 h, the A490 nm was measured using a BioRad iMark Microplate Reader (Hercules). Final data reﬂect the average and standard deviation (S.D.) of three replicates at each compound concentration. […]

Mcm2-7 = test system: T1, Mcm2-7; assay: Steady-state ATP hydrolysis by Mcm2-7; assay type: biochemical, Saccharomyces cerevisiae; conditions: 1 mM compound, 100 nM hexamer
T1 construct: made in house; host or cells: baculovirus-infected insect cells

Mcm467 = target: T2, Mcm467 (Saccharomyces cerevisiae, UniProt P30665+P38132+P53091); assay: ssDNA double filter-binding assay, Mcm467; conditions: 1 mM compound, 150 nM helicase
T2 construct: made in house; host or cells: baculovirus-infected insect cells
T2 sequence (P30665 whole entry): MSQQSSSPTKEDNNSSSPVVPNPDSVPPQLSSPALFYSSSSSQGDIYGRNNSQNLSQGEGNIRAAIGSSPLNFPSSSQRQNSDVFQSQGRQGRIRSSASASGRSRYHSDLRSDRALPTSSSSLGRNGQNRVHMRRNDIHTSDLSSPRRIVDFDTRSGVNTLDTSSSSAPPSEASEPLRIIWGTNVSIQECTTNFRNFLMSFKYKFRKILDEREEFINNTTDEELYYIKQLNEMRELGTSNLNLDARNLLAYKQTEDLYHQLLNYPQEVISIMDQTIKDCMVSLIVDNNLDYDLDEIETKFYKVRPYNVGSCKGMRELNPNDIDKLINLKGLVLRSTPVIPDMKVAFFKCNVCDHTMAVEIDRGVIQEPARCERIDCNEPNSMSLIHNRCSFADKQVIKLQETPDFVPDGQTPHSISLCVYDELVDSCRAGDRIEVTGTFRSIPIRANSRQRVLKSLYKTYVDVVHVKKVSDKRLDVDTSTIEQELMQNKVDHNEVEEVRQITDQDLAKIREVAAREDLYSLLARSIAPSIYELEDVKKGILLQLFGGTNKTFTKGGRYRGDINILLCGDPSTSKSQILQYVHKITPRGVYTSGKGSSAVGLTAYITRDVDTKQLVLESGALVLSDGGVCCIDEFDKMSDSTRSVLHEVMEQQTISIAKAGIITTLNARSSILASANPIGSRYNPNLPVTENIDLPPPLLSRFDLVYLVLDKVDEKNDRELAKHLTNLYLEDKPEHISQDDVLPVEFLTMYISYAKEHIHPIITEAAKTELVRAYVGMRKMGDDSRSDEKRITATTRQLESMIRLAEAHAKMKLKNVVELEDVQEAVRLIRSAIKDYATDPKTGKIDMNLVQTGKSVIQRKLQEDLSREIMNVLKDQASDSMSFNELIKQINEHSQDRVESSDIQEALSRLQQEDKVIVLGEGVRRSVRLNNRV
T2 sequence (P53091 whole entry): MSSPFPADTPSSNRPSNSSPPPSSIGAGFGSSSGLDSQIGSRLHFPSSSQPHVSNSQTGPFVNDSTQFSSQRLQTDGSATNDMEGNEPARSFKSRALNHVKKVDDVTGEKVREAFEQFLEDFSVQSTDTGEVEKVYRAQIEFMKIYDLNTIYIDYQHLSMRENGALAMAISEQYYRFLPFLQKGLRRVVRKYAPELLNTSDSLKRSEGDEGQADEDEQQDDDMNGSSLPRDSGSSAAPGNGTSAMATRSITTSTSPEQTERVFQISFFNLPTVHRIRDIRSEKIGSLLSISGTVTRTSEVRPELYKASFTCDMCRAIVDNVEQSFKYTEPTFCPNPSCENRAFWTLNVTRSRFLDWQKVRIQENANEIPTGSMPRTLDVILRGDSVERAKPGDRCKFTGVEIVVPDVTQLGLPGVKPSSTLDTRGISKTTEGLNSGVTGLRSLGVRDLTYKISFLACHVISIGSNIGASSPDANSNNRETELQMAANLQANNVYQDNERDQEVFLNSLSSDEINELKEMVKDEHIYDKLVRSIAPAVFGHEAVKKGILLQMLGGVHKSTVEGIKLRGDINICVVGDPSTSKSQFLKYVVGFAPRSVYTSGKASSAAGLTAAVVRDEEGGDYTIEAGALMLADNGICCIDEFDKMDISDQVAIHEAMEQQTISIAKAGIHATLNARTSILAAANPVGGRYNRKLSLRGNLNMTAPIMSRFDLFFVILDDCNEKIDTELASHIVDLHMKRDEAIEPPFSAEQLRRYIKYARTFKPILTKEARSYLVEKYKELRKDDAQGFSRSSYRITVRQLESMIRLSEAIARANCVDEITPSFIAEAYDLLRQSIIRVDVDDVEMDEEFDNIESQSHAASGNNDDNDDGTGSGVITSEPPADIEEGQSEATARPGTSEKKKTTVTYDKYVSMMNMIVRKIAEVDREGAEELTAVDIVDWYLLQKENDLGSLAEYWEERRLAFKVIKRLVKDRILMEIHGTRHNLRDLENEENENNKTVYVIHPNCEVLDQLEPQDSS
T2 sequence (P38132 whole entry): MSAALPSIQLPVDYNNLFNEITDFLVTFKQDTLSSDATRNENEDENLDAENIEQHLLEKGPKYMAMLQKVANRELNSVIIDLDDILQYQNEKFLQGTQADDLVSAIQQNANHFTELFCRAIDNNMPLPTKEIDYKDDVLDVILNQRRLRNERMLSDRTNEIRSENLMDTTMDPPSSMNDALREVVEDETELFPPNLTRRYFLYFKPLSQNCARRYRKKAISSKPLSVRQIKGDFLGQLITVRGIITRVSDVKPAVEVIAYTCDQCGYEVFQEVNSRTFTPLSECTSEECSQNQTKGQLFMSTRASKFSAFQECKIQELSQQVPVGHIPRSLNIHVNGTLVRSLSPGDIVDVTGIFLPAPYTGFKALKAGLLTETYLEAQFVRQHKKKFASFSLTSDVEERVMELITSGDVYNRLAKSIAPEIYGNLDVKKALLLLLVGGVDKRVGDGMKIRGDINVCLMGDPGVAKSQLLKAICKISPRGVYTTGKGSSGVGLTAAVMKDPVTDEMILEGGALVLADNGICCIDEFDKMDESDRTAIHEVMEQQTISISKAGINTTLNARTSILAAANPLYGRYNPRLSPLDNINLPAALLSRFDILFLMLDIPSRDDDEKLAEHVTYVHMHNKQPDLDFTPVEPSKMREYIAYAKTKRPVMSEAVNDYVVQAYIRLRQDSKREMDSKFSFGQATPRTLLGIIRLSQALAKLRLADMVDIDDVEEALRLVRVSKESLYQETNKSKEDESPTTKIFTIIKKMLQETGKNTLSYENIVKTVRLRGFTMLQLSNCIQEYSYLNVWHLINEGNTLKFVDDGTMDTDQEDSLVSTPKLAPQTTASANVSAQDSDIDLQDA

SV40 large TAg = target: T3, SV40 large TAg (Simian virus 40, UniProt P03070); assay: ssDNA double filter-binding assay, TAg; set-up: species or system SV40 (simian virus 40); conditions: 1 mM compound, 150 nM helicase
T3 construct: made in house
T3 sequence (P03070 whole entry): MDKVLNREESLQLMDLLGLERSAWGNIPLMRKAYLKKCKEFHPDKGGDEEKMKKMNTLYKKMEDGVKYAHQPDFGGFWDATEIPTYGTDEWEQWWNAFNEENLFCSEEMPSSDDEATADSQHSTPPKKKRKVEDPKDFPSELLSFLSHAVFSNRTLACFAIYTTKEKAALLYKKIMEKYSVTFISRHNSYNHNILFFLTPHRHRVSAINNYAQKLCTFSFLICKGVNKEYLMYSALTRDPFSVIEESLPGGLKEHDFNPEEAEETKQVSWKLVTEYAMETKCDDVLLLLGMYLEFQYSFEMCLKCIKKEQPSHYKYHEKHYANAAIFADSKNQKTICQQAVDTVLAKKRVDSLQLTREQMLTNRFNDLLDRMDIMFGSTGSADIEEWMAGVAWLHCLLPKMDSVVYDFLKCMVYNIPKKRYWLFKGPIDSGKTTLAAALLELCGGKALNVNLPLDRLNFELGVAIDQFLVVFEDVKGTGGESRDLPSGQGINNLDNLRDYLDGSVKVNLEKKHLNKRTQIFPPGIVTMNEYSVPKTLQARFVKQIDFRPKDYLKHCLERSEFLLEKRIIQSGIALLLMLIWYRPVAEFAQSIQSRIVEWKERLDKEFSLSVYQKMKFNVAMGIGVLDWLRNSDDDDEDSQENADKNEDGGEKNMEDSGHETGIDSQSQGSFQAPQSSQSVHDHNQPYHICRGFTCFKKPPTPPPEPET

DnaB = DnaB (Escherichia coli, UniProt P0ACB0); assay: DnaB helicase assay; assay type: biochemical; conditions: 1 mM, Figure S3
Chain of DnaB (P0ACB0 whole entry, the tested form may be a part): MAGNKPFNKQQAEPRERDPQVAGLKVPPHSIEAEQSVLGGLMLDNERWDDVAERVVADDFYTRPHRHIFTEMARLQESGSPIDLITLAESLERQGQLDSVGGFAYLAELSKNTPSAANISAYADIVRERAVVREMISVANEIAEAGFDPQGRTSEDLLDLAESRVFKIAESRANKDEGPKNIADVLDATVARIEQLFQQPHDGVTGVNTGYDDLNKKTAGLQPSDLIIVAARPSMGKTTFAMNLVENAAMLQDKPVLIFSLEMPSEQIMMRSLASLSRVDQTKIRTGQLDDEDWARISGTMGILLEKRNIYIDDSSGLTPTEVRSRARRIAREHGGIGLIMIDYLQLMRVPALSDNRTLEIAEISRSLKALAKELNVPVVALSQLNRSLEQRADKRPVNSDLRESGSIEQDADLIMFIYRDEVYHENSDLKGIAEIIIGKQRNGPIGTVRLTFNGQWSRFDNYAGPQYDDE
Method: Helicase assays were performed essentially as described. Synthetic replication forks were prepared by annealing oligos 233 and 235 [IDT (Coralville), oligo 233 5′(T)40[…]; oligo 235 5′ […](T)40] and then filling in the recessed 3′-end with [α32P]dATP and unlabelled dNTPs using Klenow Fragment. Briefly, reactions ([…]) were performed in 1× helicase assay buffer [20 mM Tris/HCl (pH 7.5), 10 mM MgOAc, 20% (v/v) glycerol, 100 μM EDTA and 5 mM DTT (dithiothreitol)] and contained a final concentration of 1 nM fork substrate, 5 mM ATP, 40 mM creatine phosphate, […] creatine kinase, 33 μg/ml BSA. Reactions containing Mcm2-7 and Mcm467 were supplemented with 200 mM potassium glutamate. Reactions containing SsoMcm were incubated at 65°C, those containing T4 gp41 were incubated for 30 min at 37°C, and all other reactions were incubated at 37°C for 1 h. The products were separated by 10% (w/v) native PAGE, the resulting gels dried and the radioactivity quantified using a Fuji FLA-5100 phosphoimager. Irrespective of the protein used, all helicase assays contained equal molar helicase concentrations (100 nM, assuming in all cases that the active helicase form is hexameric). Steady-state ATP hydrolysis was assayed as published. In short, reactions were set up essentially as in the helicase assay, with minor exceptions. A non-radiolabelled DNA fork was used, helicase concentration was 100 nM (hexamer) the total ATP concentration was 500 μM and included ~0.5 μCi of [α32P]ATP, and the ATP regeneration system was omitted. Reactions were incubated for 1 h at 37°C and stopped by the addition of SDS. ATP was separated from ADP by PEI (polyethyleneimine) thin layer chromatography, and the ratio of ATP:ADP was quantified using a Fuji FLA-5100 phosphoimager. Based on our prior work, conditions were established to ensure that the results shown are within the linear range of the assay. Protein–ssDNA binding was determined with a double filter-binding assay using an ssDNA probe (oligo 826, 5′[…]) that was 5′-radiolabelled using T4 polynucleotide kinase and [γ32P]ATP [16]. For the double filter-binding assay, the helicase concentration was 150 nM (hexamer) and the ssDNA concentration was 4 nM. For all biochemical assays, helicases were preincubated with inhibitors for 20 min at 37°C unless otherwise indicated. […]
against different helicases
Representative helicase activity assays in the presence of the indicated inhibitor were tested, quantiﬁed and standardized as described in the legend to F igures 2 (A) and (B). All helicases were assayed at 100 nM
ﬁnal concentration (hexamer) with inhibitor preincubation prior to ATP […]
F igure S3 Ciproﬂoxacin poor ly inhibits hexameric helicases un- […]
All inhibitors were used at 1 mM ﬁnal concentration. […]

O=C(O)c1cn(C2CC2)c2cc(N3CCNCC3)c(F)cc2c1=O [Ciprofloxacin, ciprofloxacin, reference compound]
IC50 [1]: 1300 µM
growth response of wild-type yeast (Wild-type yeast): resistant
IC50 (RPE-hTERT cells): 240 µM
effect on ATP hydrolysis of Mcm2-7 (Mcm2-7): only modest effects
effect on ssDNA binding of Mcm467 (Mcm467): only modest effects
effect on ssDNA binding of TAg (SV40 large TAg): only modest effects
inhibition of DnaB helicase (DnaB): none of the tested helicases were substantially inhibited
